Data as given in US20060030586A1, “Method and health food for preventing and/or alleviating psychiatric disorder, and/or for effectuating sedation” (Education Center of Traditional Chinese Medicine Co., priority 2004, published 2006).

Experiments:
mice [1] = experiment: Locomotor activity (ultromotivity) measurement, evaluation of sedative action; format: in vivo; settings: for Significant difference test of ultromotivity: Tukey's method; for Ultromotivity (count) 60 minutes / Significant difference test of ultromotivity: 60 minutes
Description: (§1) In the following Examples, all extracts and drugs used were dissolved in physiological saline before use for i.p. administration and the dose was 0.1 ml of physiological saline per 10 g of mouse body weight in either case. All extracts and drugs were suspended in physiological saline containing 1% carboxymethylcellulose before use for oral administration and the dose was 0.1 ml of 1% carboxymethylcellulose-containing physiological saline suspension per 10 g of mouse body weight in either case. Male ICR mice (Japan SLC) having a body weight of 25 to 30 g were used in the tests below unless otherwise stated, and were fed in advance at a room temperature of 23±1° C. and a relative humidity of 55±5% in the environment of a 12-hour-light and 12-hour-dark cycle at 7 and 19 for 3 to 5 days. The mice were allowed to have water and feed freely.
Twenty five mice were grouped into five groups each having five mice, to which 5 mg/kg of N-methylcoclaurine hydrochloride (treatment group 1-1: i.p. administration), 50 mg/kg of neferine hydrochloride (treatment group 1-2: oral administration, and treatment group 1-3: i.p. administration), 50 mg/kg of liensinine hydrochloride (treatment group 1-4: oral administration), or physiological saline (negativity control group 1-1: i.p. administration) was administered. The ultromotivity of the mice was analyzed by using a locomotor activity monitoring system (NS-AS01, Neuroscience Inc.). The ultromotivity measurements were performed at an interval of 5 minutes for 60 minutes, and the ultromotivity was judged from the count at each measuring time.
Similar tests were conducted by i.p. administration of 25 mg/kg of N-norarmepavine (treatment group 1-5, n=6), 25 mg/kg of O,O-dimethylcoclaurine (treatment group 1-6, n=5), 10 mg and 25 mg/kg of armepavine (respectively, treatment group 1-7, n=6, and treatment group 1-8, n=6), 10 mg and 25 mg/kg of O-methylarmepavine (respectively, treatment group 1-9, n=6, and treatment group 1-10, n=6), and physiological saline (negativity control group 1-2, n=5). The ultromotivity measurements were performed at an interval of five minutes for 60 minutes, and the ultromotivity was subjected to a significant difference test (Tukey's method) by using the counts at respective measuring times.
(§2) Tests were performed by using mice administered intraperitoneally with 25 mg/kg of neferine hydrochloride (treatment group 7-1, n=6), 25 mg/kg of liensinine hydrochloride (treatment group 7-2, n=6), and physiological saline (negativity control group, n=6) as well as 5 mg/kg of diazepam (positive control group, n=6) and a rotarod equipment (Ugo Basile, Italy) and a locomotor activity monitoring system (NS-ASO1, Neuroscience Inc.). The rotarod test was performed by placing a mouse on a rod having a diameter of 4 cm rotating at a speed of 8 rpm 15 minutes after drug administration and observing whether the mouse can stay on the rod without falling for three minutes. The individuals that had fallen from the rotating rod in the period of 3 minutes were judged that they are with motor coordination disorder. […] In addition, the ultromotivity measurements were performed at an interval of five minutes for 60 minutes, and the ultromotivity results were subjected to a significant difference test (Tukey's method) by using the counts at respective measuring times.

mice [2] = experiment: Thiopental sleep-enhancing test; format: in vivo; settings: 15 minutes before thiopental 60 mg/kg i.p.
Description: as §1
Actions on thiopental sleep by various compounds were evaluated. Thiopental dissolved in physiological saline was administered intraperitoneally into mice at a dose of 60 mg/kg. 50 mg/kg of neferine hydrochloride (treatment group 2-1, n=9), 50 mg/kg of isoliensinine hydrochloride (treatment group 2-2, n=9), 100 mg/kg of lien tzehsin 2 extract hydrochloride (treatment group 2-3, n=9), only physiological saline (negativity control group, n=6), or 1 mg/kg of diazepam (positive control group, n=9) was administered intraperitoneally into the mice 15 minutes before the thiopental administration. The time when the righting reflex of the mice disappeared after thiopental administration was designated as sleep-induction time, while total sleep time was calculated from the induction time and the time when the righting reflex was restored.

mice [3] = experiment: Rotarod test (muscle relaxation, motor coordination); format: in vivo; settings: n=6, 8 rpm, 3 minutes, 15 minutes after administration
Description: as §1, §2

mice [4] = experiment: Suppression of methamphetamine-enhanced ultromotivity; format: in vivo; settings: for Ultromotivity (count): hydrochloride, methamphetamine 1 mg/kg 15 minutes later, 60 minutes
Description: as §1
The effects of neferine on suppression of the enhancement of ultromotivity by methamphetamine were evaluated.
Fifteen mice were grouped into three groups of five mice, to which 50 mg/kg of neferine hydrochloride (treatment group 3-1), 100 mg/kg of the same (treatment group 3-2), and only physiological saline (negativity control group) were administered respectively intraperitoneally. Methamphetamine (1 mg/kg) was administered 15 minutes after the administration. After administration of methamphetamine, each of the mice was placed in a transparent polycarbonate cage (22.5 cm×33.8 cm×14.0 cm), where the ultromotivity of the mouse was analyzed for 60 minutes by using a locomotor activity analyzer (NS-AS01, Neuroscience Inc.).

mice [5] = experiment: Forced swimming test (Porsolt); format: in vivo; settings: 100 mg/kg i.p., hydrochloride, 6-minute period
Description: as §1
Forced swimming tests were conducted according to the method of Porsolt et al. A mouse was placed in a cylindrical glass water tank of 10 cm in diameter and 25 cm in height (water temperature: 23° C.) filled with water to a depth of 10 cm and forced to swim therein. […] Each mouse was forced to swim 15 and 30 minutes after administration, and the immobile times during the 6-minute periods immediately after forced swimming were determined. […]

mice [6] = experiment: Elevated plus-maze test; format: in vivo; settings: 100 mg/kg i.p., hydrochloride, 30 minutes after administration, 5 minutes
Description: In the following Examples, all extracts and drugs used were dissolved in physiological saline before use for i.p. administration and the dose was 0.1 ml of physiological saline per 10 g of mouse body weight in either case. All extracts and drugs were suspended in physiological saline containing 1% carboxymethylcellulose before use for oral administration and the dose was 0.1 ml of 1% carboxymethylcellulose-containing physiological saline suspension per 10 g of mouse body weight in either case. […]
An elevated plus-maze (Neuroscience Inc.) consisting of 2 arms without high walls and 2 arms enclosed by high walls, which were crossing perpendicular to each other, was used for evaluation. A mouse was placed on the platform at the center in a position facing toward an arm enclosed by high walls, and the number of times the mouse entered into both arms and the period of the mouse staying in the arms without walls were determined during a period of 5 minutes. The results were evaluated by the ratios of the number of the mouse entering into the arms with walls with respect to the total number of entering into both arms (%) and by the period of the mouse staying in the arms without walls (%). […]

mice [7] = experiment: Glass ball-covering behavior test; format: in vivo; settings: hydrochloride, 20 balls
Description: as §1
In evaluating glass ball-covering behavior, wood chip for breeding (beta chip) (Oriental Yeast Co., Ltd.) was placed in the transparent cage described in Example 3 to a depth of 5 cm, on which 20 glass balls (diameter: 1.5 cm) were placed evenly.
Twenty-one mice were grouped into three groups of seven mice, to which 25 mg/kg of neferine hydrochloride (treatment group 6-1), 50 mg/kg of the same (treatment group 6-2), and physiological saline (negativity control group) were administered intraperitoneally, respectively. A mouse was placed in the case 15 minutes after administration, and the number of the glass balls not covered with the wood chip was counted by visual observation at an interval of 10 minutes. The number of balls having ⅔ of the surface thereof being embedded in the wood chip was counted as the criteria for judgment.

mice [8] = settings: Ito et al.; cited from earlier work
[9] = Seibu et al., no specific data; cited from earlier work

SMILES: COc1cc2c(cc1O)[C@@H](Cc1ccc(O)cc1)N(C)CC2 [N-methylcoclaurine]
- Sedative activity compared with neferine and liensinine (in words) (mice [1]; 5 mg/kg i.p. versus 50 mg/kg): extremely higher activity
- Ultromotivity (count) 30 minutes (mice [1]; 5 mg/kg i.p., hydrochloride): 250 count
- Ultromotivity (count) 60 minutes (mice [1]; 5 mg/kg i.p., hydrochloride): 250 count

SMILES: CN1C(=O)CN=C(c2ccccc2)c2cc(Cl)ccc21 [diazepam, reference compound]
- Significant difference test of ultromotivity (mice [1]; 5 mg/kg i.p.): P < 0.005
- Total sleep time (mice [2]; 1 mg/kg i.p.): 130 min
- Number of individuals fallen (mice [3]; 5 mg/kg i.p.): 5

SMILES: COc1ccc(C[C@@H]2c3cc(Oc4cc(C[C@@H]5c6cc(O)c(OC)cc6CCN5C)ccc4O)c(OC)cc3CCN2C)cc1 [isoliensinine]
- Total sleep time (mice [2]; 50 mg/kg i.p., hydrochloride): 120 min

SMILES: COc1cc2c(cc1OC)[C@@H](Cc1ccc(O)c(Oc3cc4c(cc3OC)CCN(C)[C@@H]4Cc3ccc(O)cc3)c1)N(C)CC2 [liensinine]
- Significant difference test of ultromotivity (mice [1]; 25 mg/kg i.p., hydrochloride): In declining
- Ultromotivity (count) 30 minutes (mice [1]; 50 mg/kg oral, hydrochloride): 600 count
- Ultromotivity (count) 60 minutes (mice [1]; 50 mg/kg oral, hydrochloride): 800 count
- Number of individuals fallen (mice [3]; 25 mg/kg i.p., hydrochloride): 0

SMILES: COc1ccc(C[C@@H]2c3cc(Oc4cc(C[C@@H]5c6cc(OC)c(OC)cc6CCN5C)ccc4O)c(OC)cc3CCN2C)cc1 [neferine]
- Significant difference test of ultromotivity (mice [1]; 25 mg/kg i.p., hydrochloride): P < 0.01
- Ultromotivity (count) 30 minutes (mice [1]; 50 mg/kg i.p., hydrochloride): 500 count
- Ultromotivity (count) 60 minutes (mice [1]; 50 mg/kg i.p., hydrochloride): 760 count
- Ultromotivity (count) 30 minutes (mice [1]; 50 mg/kg oral, hydrochloride): 500 count
- Ultromotivity (count) 60 minutes (mice [1]; 50 mg/kg oral, hydrochloride): 750 count
- Total sleep time (mice [2]; 50 mg/kg i.p., hydrochloride): 100 min
- Ultromotivity (count) (mice [4]; 50 mg/kg i.p.): 2600 count
- Ultromotivity (count) (mice [4]; 100 mg/kg i.p.): 1800 count
- Action on ultromotivity enhancement by methamphetamine (in words) (mice [4]; 50 and 100 mg/kg i.p.): obvious action suppressing the ultromotivity enhancement by methamphetamine
- Immobile time (sec) After 15 minutes (mice [5]; 15 minutes after administration): 165 s
- Immobile time (sec) After 30 minutes (mice [5]; 30 minutes after administration): 170 s
- Staying period (%) (mice [6]; arms without walls): 33%
- Invasion times (%) (mice [6]; ratio to total entries): 70%
- Number of glass balls not covered with wood chip After 10 minutes (mice [7]; 25 mg/kg i.p.): 4
- Number of glass balls not covered with wood chip After 20 minutes (mice [7]; 25 mg/kg i.p.): 7
- Number of glass balls not covered with wood chip After 30 minutes (mice [7]; 25 mg/kg i.p.): 10
- Number of glass balls not covered with wood chip After 10 minutes (mice [7]; 50 mg/kg i.p.): 3
- Number of glass balls not covered with wood chip After 20 minutes (mice [7]; 50 mg/kg i.p.): 6
- Number of glass balls not covered with wood chip After 30 minutes (mice [7]; 50 mg/kg i.p.): 9
- Number of individuals fallen (mice [3]; 25 mg/kg i.p., hydrochloride): 0
- Locomotor activity-inhibiting action (in words) (mice [8]): exhibited a locomotor activity-inhibiting action
- Antihypertensive action (in words) [9]: exhibited an antihypertensive action
